Test results: the OligoGym collection
HELM strings list units from the 5' end as sugar, base in round brackets, then linkage (d deoxyribose, r ribose, m 2'-O-methyl, p phosphodiester). Strings are as the collection lists them; they lack the last nucleoside at the 3' end of the tested compound. [moe] = 2'-O-(2-methoxyethyl) (MOE); [sp] = phosphorothioate linkage; [m5C] = 5-methylcytosine

Molecular target: ATXN2
Test: mouse, dose not given
Settings: ASO

Point of comparison: “RNA1{[moe](T)[sp].[moe](T)p.[moe]([m5C])p.[moe](T)p.[moe]([m5C])[sp].d(T)[sp].d(A)[sp].d(T)[sp].d(T)[sp].d(T)[sp].d([m5C])[sp].d(T)[sp].d(T)[sp].[moe](T)p.[moe](G)p.[moe](T)[sp].[moe]([m5C])}$$$$ (last 3' nucleoside missing)”, 3 h FOB score 1 score 0-7. Against it:
- RNA1{[moe](T)[sp].[moe](T)p.[moe](T)p.[moe](T)p.[moe](G)p.d(A)[sp].d(A)[sp].d(T)[sp].d(T)[sp].d(A)[sp].d([m5C])[sp].d(A)[sp].d(A)[sp].d(T)[sp].d(G)[sp].[moe]([m5C])p.[moe](G)p.[moe](G)[sp].[moe](T)}$$$$ (last 3' nucleoside missing) — higher, 2 score 0-7
- RNA1{[moe](T)[sp].[moe](A)p.[moe]([m5C])p.[moe](T)p.[moe](T)p.d([m5C])[sp].d(A)[sp].d([m5C])[sp].d(A)[sp].d(T)[sp].d(T)[sp].d(T)[sp].d(G)[sp].d(G)[sp].d(A)[sp].[moe](G)p.[moe]([m5C])p.[moe]([m5C])[sp].[moe]([m5C])}$$$$ (last 3' nucleoside missing) — higher, 5.25 score 0-7
- RNA1{[moe](G)[sp].[moe]([m5C])p.[moe](T)p.[moe](G)p.[moe](T)p.d(A)[sp].d(T)[sp].d(T)[sp].d(T)[sp].d(T)[sp].d(T)[sp].d(A)[sp].d([m5C])[sp].d(T)[sp].d([m5C])[sp].[moe](A)p.[moe]([m5C])p.[moe]([m5C])[sp].[moe](T)}$$$$ (last 3' nucleoside missing) — lower, 0 score 0-7
- RNA1{[moe]([m5C])[sp].[moe](A)p.[moe]([m5C])p.[moe](A)p.[moe]([m5C])p.d(A)[sp].d([m5C])[sp].d(T)[sp].d(T)[sp].d(T)[sp].d(A)[sp].d(A)[sp].d(A)[sp].d(T)[sp].d(A)[sp].[moe]([m5C])p.[moe](A)p.[moe](G)[sp].[moe](G)}$$$$ (last 3' nucleoside missing) — higher, 6.5 score 0-7
- RNA1{[moe](G)[sp].[moe](T)p.[moe](G)p.[moe](T)p.[moe](T)p.d([m5C])[sp].d(A)[sp].d(G)[sp].d(T)[sp].d(A)[sp].d(T)[sp].d(A)[sp].d(G)[sp].d(A)[sp].d(T)[sp].[moe](T)p.[moe](A)p.[moe](T)[sp].[moe]([m5C])}$$$$ (last 3' nucleoside missing) — higher, 3.75 score 0-7
- RNA1{[moe](T)[sp].[moe](T)p.[moe](G)p.[moe]([m5C])p.[moe](A)p.d([m5C])[sp].d(A)[sp].d(T)[sp].d(A)[sp].d(G)[sp].d(G)[sp].d(T)[sp].d(T)[sp].d(A)[sp].d(G)[sp].[moe](A)p.[moe](A)p.[moe](T)[sp].[moe](T)}$$$$ (last 3' nucleoside missing) — higher, 6.5 score 0-7
- RNA1{[moe]([m5C])[sp].[moe](G)p.[moe](T)p.[moe](A)p.d(T)[sp].d(G)[sp].d(T)[sp].d(T)[sp].d(T)[sp].d(G)[sp].d(T)[sp].d([m5C])[sp].d(T)[sp].d(G)[sp].[moe](T)p.[moe]([m5C])p.[moe](T)p.[moe](T)[sp].[moe](A)}$$$$ (last 3' nucleoside missing) — higher, 4 score 0-7
- RNA1{[moe](G)[sp].[moe]([m5C])p.[moe](T)p.[moe](A)p.[moe](A)[sp].d([m5C])[sp].d(T)[sp].d(G)[sp].d(G)[sp].d(T)[sp].d(T)[sp].d(T)[sp].d(G)[sp].[moe]([m5C])p.[moe]([m5C])p.[moe]([m5C])[sp].[moe](T)}$$$$ (last 3' nucleoside missing) — higher, 6.5 score 0-7
- RNA1{[moe](A)[sp].[moe](G)p.[moe](G)p.[moe](T)p.[moe](G)p.d(A)[sp].d(T)[sp].d(G)[sp].d(T)[sp].d(T)[sp].d(T)[sp].d([m5C])[sp].d(A)[sp].d(T)[sp].d(T)[sp].[moe](G)p.[moe](G)p.[moe](G)[sp].[moe](T)}$$$$ (last 3' nucleoside missing) — higher, 4.5 score 0-7
- RNA1{[moe](T)[sp].[moe](T)p.[moe](A)p.[moe]([m5C])p.[moe](T)p.d(T)[sp].d([m5C])[sp].d(T)[sp].d(T)[sp].d(T)[sp].d(T)[sp].d(G)[sp].d([m5C])[sp].d(T)[sp].d(A)[sp].[moe](G)p.[moe]([m5C])p.[moe](T)[sp].[moe](G)}$$$$ (last 3' nucleoside missing) — the same, 1 score 0-7
- RNA1{[moe](A)[sp].[moe](G)p.[moe](T)p.[moe](A)p.[moe](A)p.d(A)[sp].d(A)[sp].d(G)[sp].d(T)[sp].d(T)[sp].d(T)[sp].d(T)[sp].d(T)[sp].d([m5C])[sp].d([m5C])[sp].[moe]([m5C])p.[moe](T)p.[moe](T)[sp].[moe](A)}$$$$ (last 3' nucleoside missing) — higher, 3.25 score 0-7
- RNA1{[moe](T)[sp].[moe](T)p.[moe]([m5C])p.[moe](T)p.[moe](G)p.d([m5C])[sp].d(T)[sp].d(A)[sp].d(A)[sp].d([m5C])[sp].d(T)[sp].d(G)[sp].d(G)[sp].d(T)[sp].d(T)[sp].[moe](T)p.[moe](G)p.[moe]([m5C])[sp].[moe]([m5C])}$$$$ (last 3' nucleoside missing) — higher, 2 score 0-7
- RNA1{[moe]([m5C])[sp].[moe]([m5C])p.[moe](T)p.[moe](A)p.[moe](T)p.[moe]([m5C])p.d(A)[sp].d(T)[sp].d([m5C])[sp].d(A)[sp].d(T)[sp].d(T)[sp].d(T)[sp].d(T)[sp].d([m5C])[sp].d([m5C])[sp].[moe](A)p.[moe](G)[sp].[moe](G)}$$$$ (last 3' nucleoside missing) — higher, 1.25 score 0-7
- RNA1{[moe](A)[sp].[moe]([m5C])p.[moe](T)p.[moe](T)p.[moe]([m5C])[sp].d(T)[sp].d([m5C])[sp].d(T)[sp].d(A)[sp].d(T)[sp].d(T)[sp].d(T)[sp].d([m5C])[sp].[moe](T)p.[moe](T)p.[moe](T)[sp].[moe](G)}$$$$ (last 3' nucleoside missing) — higher, 2 score 0-7
- RNA1{[moe](T)[sp].[moe](T)p.[moe](T)p.[moe](T)p.[moe]([m5C])[sp].d(T)[sp].d([m5C])[sp].d(A)[sp].d(T)[sp].d(G)[sp].d(T)[sp].d(G)[sp].d([m5C])[sp].[moe](G)p.[moe](G)p.[moe]([m5C])[sp].[moe](A)}$$$$ (last 3' nucleoside missing) — higher, 5.5 score 0-7
- RNA1{[moe](T)[sp].[moe](T)p.[moe](A)p.[moe](G)p.[moe](A)p.d(G)[sp].d(T)[sp].d(T)[sp].d(T)[sp].d(T)[sp].d(T)[sp].d(G)[sp].d([m5C])[sp].d([m5C])[sp].d(T)[sp].[moe](T)p.[moe]([m5C])p.[moe]([m5C])[sp].[moe](A)}$$$$ (last 3' nucleoside missing) — higher, 3.5 score 0-7
- RNA1{[moe](G)[sp].[moe](T)p.[moe](T)p.[moe](T)p.[moe](A)p.d(A)[sp].d(T)[sp].d(T)[sp].d(T)[sp].d(G)[sp].d(T)[sp].d(A)[sp].d(A)[sp].d([m5C])[sp].d(T)[sp].[moe](A)p.[moe](G)p.[moe](G)[sp].[moe](T)}$$$$ (last 3' nucleoside missing) — higher, 3.5 score 0-7
- RNA1{[moe]([m5C])[sp].[moe](A)p.[moe](G)p.[moe](A)p.[moe](A)p.d(A)[sp].d(G)[sp].d([m5C])[sp].d(T)[sp].d(G)[sp].d(T)[sp].d(G)[sp].d(T)[sp].d(G)[sp].d(T)[sp].[moe](T)p.[moe](T)p.[moe](A)[sp].[moe](A)}$$$$ (last 3' nucleoside missing) — higher, 6 score 0-7
- RNA1{[moe](A)[sp].[moe](T)p.[moe](G)p.[moe]([m5C])p.[moe](A)p.d(A)[sp].d([m5C])[sp].d(T)[sp].d(T)[sp].d(A)[sp].d(A)[sp].d(T)[sp].d(A)[sp].d(A)[sp].d([m5C])[sp].[moe]([m5C])p.[moe](T)p.[moe](T)[sp].[moe](A)}$$$$ (last 3' nucleoside missing) — lower, 0.25 score 0-7
- RNA1{[moe](T)[sp].[moe](A)p.[moe](T)p.[moe]([m5C])p.[moe](A)[sp].d(T)[sp].d([m5C])[sp].d(A)[sp].d(T)[sp].d(T)[sp].d(T)[sp].d(T)[sp].d([m5C])[sp].[moe]([m5C])p.[moe](A)p.[moe](G)[sp].[moe](G)}$$$$ (last 3' nucleoside missing) — higher, 1.5 score 0-7
- RNA1{[moe]([m5C])[sp].[moe](T)p.[moe](T)p.[moe](A)p.d(G)[sp].d(A)[sp].d(G)[sp].d(T)[sp].d(T)[sp].d(T)[sp].d(T)[sp].d(T)[sp].d(G)[sp].d([m5C])[sp].[moe]([m5C])p.[moe](T)p.[moe](T)p.[moe]([m5C])[sp].[moe]([m5C])}$$$$ (last 3' nucleoside missing) — higher, 5.5 score 0-7
- RNA1{[moe](G)[sp].[moe](T)p.[moe](A)p.[moe]([m5C])p.[moe](T)p.d(T)[sp].d([m5C])[sp].d(A)[sp].d([m5C])[sp].d(A)[sp].d(T)[sp].d(T)[sp].d(T)[sp].d(G)[sp].d(G)[sp].[moe](A)p.[moe](G)p.[moe]([m5C])[sp].[moe]([m5C])}$$$$ (last 3' nucleoside missing) — the same, 1 score 0-7
- RNA1{[moe](T)[sp].[moe]([m5C])p.[moe](T)p.[moe](G)p.[moe]([m5C])[sp].d(T)[sp].d(A)[sp].d(A)[sp].d([m5C])[sp].d(T)[sp].d(G)[sp].d(G)[sp].d(T)[sp].[moe](T)p.[moe](T)p.[moe](G)[sp].[moe]([m5C])}$$$$ (last 3' nucleoside missing) — higher, 2 score 0-7
- RNA1{[moe](T)[sp].[moe](G)p.[moe](G)p.[moe](T)p.[moe](T)p.d([m5C])[sp].d([m5C])[sp].d(T)[sp].d(T)[sp].d(A)[sp].d([m5C])[sp].d(A)[sp].d(A)[sp].d(T)[sp].d(T)[sp].[moe](A)p.[moe](T)p.[moe]([m5C])[sp].[moe](T)}$$$$ (last 3' nucleoside missing) — lower, 0 score 0-7
- RNA1{[moe](A)[sp].[moe]([m5C])p.[moe](A)p.[moe]([m5C])p.[moe](A)p.d(G)[sp].d(T)[sp].d(T)[sp].d(T)[sp].d([m5C])[sp].d(A)[sp].d([m5C])[sp].d(T)[sp].d(A)[sp].d(G)[sp].[moe](G)p.[moe](T)p.[moe](T)[sp].[moe]([m5C])}$$$$ (last 3' nucleoside missing) — lower, 0 score 0-7
- RNA1{[moe](T)[sp].[moe](A)p.[moe](G)p.[moe]([m5C])p.[moe](A)p.d(T)[sp].d([m5C])[sp].d(A)[sp].d(T)[sp].d(T)[sp].d(G)[sp].d(G)[sp].d([m5C])[sp].d(G)[sp].d([m5C])[sp].[moe](A)p.[moe](T)p.[moe](G)[sp].[moe](G)}$$$$ (last 3' nucleoside missing) — higher, 6.25 score 0-7
